Test results: patent US11679097B2, “Combination product containing limonoid compound and biguanide compound” (ZHEJIANG YANGSHENGTANG INSTITUTE OF NATURAL MEDICATION CO., …, priority 2017, dated 2023)

Key:
Format in all cases: in vivo
STZ mice [1] = experiment: Blood glucose in mouse pancreatic islet β-cell injury model (Example 3); details: STZ ICR mice; single administration 0.1 g/kg per day by gavage, two weeks; 1 h after last administration
Excerpt: Effects of a Limonoid Compound, Metformin or a Combination Thereof on Blood Glucose in a Mouse Pancreatic Islet β-Cell Injury Model In this example, a mouse pancreatic islet β-cell injury model was established by modeling ICR mice with streptozotocin (STZ) (referred to the prior art literature: Li Nan et al., Protective effect of pine pollen on kidney damage in diabetic nephropathy mice, Science and Technology Review, 2014, 32 (4/5): 95-99), and used to complete the evaluation of hypoglycemic effect in animals (this model could simulate pancreatic islet β-cell damage state of type I and type II diabetics). […] Conditions of experimental feeding: ICR mice (20±2 g), aged 6 weeks, purchased from Zhejiang Academy of Medical Sciences, and subjected to experimental feeding after 7 days of preliminary feeding. […] The experimental feed was mouse growth-stable feed (GB […]), and the daily feeding and management of the animals were under the responsibility of the animal security department, which provided the animals with sufficient padding and fresh drinking water daily. Experimental grouping: 15 male mice were randomly selected as the normal control group. […] Gavage doses: the gavage dose was 0.1 g/kg per day for the […] group, the gavage dose was 0.1 g/kg per day for the […] group, the gavage dose was 0.1 g/kg per day for the […]-glucopyranoside group, the gavage dose of metformin was 0.1 g/kg per day for the metformin group, […] dose of 0.05 g/kg and metformin at a dose of 0.05 g/kg were simultaneously gavaged per day for the […]/metformin combination group, […] dose of 0.05 g/kg and metformin at a dose of 0.05 g/kg were simultaneously gavaged per day for the […]/metformin combination group, […]-glucopyranoside at a dose of 0.05 g/kg and metformin at a dose of 0.05 g/kg were simultaneously gavaged per day for the […]-glucopyranoside/metformin combination group, the gavage volume was 10 mL/kg, and the normal group and the model group were administrated with 10 mL/kg of distilled water. […] SPSS 16.0 software was used for statistical analysis. The data were expressed as mean and standard deviation. The data before and after were analyzed by t-test, and P<0.05 was considered statistically significant.

db/db mice = experiment: Blood glucose and insulin in mouse model of type II diabetes (Example 4); details: single administration 0.2 g/kg per day by gavage, two weeks
Excerpt: Effects of a Limonoid Compound, Metformin or a Combination Thereof on Blood Glucose and Insulin in a Mouse Model of Type II Diabetes
In the present embodiment, the limonoid compound selected nomilin, deacetylnomilin, nomilin acid, deactylnomilin 17-β-D-glucopyranoside, and a nomilin single administration group, deacetylnomilin single administration group, nomilin acid single administered group, deactylnomilin 17-β-D-glucopyranoside single administration group, and combination thereof with metformin administration groups were set, respectively.
(§1) Conditions for experimental feeding: as type II diabetes model mice, 6-week-old SPF-grade db/db mice were purchased from the Nanjing Model Biology Institute, and subjected to experimental feeding after 7 days of preliminary feeding. It should be noted that the conditions for raising the mice were as follows: the temperature was 23±1° C., the humidity was 55±10%, the lights were turned on between 7 am and 7 pm (the lights were turned off at other time), and the mice were allowed to access to water and feed freely. The experimental feed was mouse growth-stable feed (GB M2118), and the daily feeding and management of the animals were under the responsibility of the animal security department, which provided the animals with sufficient padding and fresh drinking water daily.
Experimental grouping: male db/db mice (20±2 g) were selected, 18 male mice in each group were tested, and drinking bottles were sterilized weekly. The experimental groups included the normal control group (db/m, n=18), the model group (db/db, n=18), the nomilin group (db/db, n=18), the deacetylnomilin group (db/db, n=18), the nomilin acid group (db/db, n=18), the deactylnomilin 17-β-D-glucopyranoside group (db/db, n=18), the metformin group (db/db, n=18), the nomilin/metformin combination group (db/db, n=18), the deacetylnomilin/metformin combination group (db/db, n=18), the nomilin acid/metformin combination group (db/db, n=18), the deactylnomilin 17-β-D-glucopyranoside/combination group (db/db, n=18).
Gavage doses: nomilin at a dose of 0.2 g/kg was gavaged per day for the nomilin group, deacetylnomilin at a dose of 0.2 g/kg was gavaged per day for the deacetylnomilin group, nomilin acid at a dose of 0.2 g/kg was gavaged per day for the nomilin acid group, deacetylnomilin […] at a dose of 0.2 g/kg was gavaged per day for the deactylnomilin glucopyranoside group, metformin at a dose of 0.2 g/kg was gavaged per day for the metformin group, nomilin at a dose of 0.1 g/kg and metformin at a dose of 0.1 g/kg were simultaneously gavaged per day for the nomilin/metformin combination group, nomilin acid at a dose of 0.1 g/kg and metformin at a dose of 0.1 g/kg were simultaneously gavaged per day for the nomilin acid/metformin combination group, deacetylnomilin at a dose of 0.1 g/kg and metformin at a dose of 0.1 g/kg were simultaneously gavaged per day for the deacetylnomilin/metformin combination group, deactylnomilin 17-β-D-glucopyranoside at a dose of 0.1 g/kg and metformin at a dose of 0.1 g/kg were simultaneously gavaged per day for the deactylnomilin 17-β-D-glucopyranoside/metformin combination group, the gavage volume was 10 mL/kg, and the normal group and the model group were administrated with 10 mL/kg of distilled water. Two weeks later, the blood glucose values were measured by tail trimming method (Johnson's blood glucose meter) 1 h after the last administration, and serum insulin levels were measured with blood collected from orbital cavity by enzyme-linked immunosorbent assay (Elisa), and the average of each group was obtained. SPSS 16.0 software was used for statistical analysis. The data were expressed as mean and standard deviation. The data before and after were analyzed by t-test, and P<0.05 was considered statistically significant.

STZ mice [2] = experiment: Blood glucose in mouse model of type II diabetes with pancreatic islet damage and obesity (Example 5); details: high-fat diet + STZ ICR mice; single administration 0.5 g/kg per day by gavage, three weeks
Method: as §1, with “It” for “Conditions for experimental feeding: as type II diabetes model mice, 6-week-old SPF-grade db/db mice were purchased from the Nanjing Model Biology Institute, and subjected to experimental feeding after 7 days of preliminary feeding. It”
SPSS 16.0 software was used for statistical analysis.

With `CN(C)C(=N)NC(=N)N` [Metformin, N,N-dimethylimidodicarbonimidic diamide, reference compound] as the molecule, how does the Blood glucose value (STZ mice [1]) read?
Its Blood glucose value is 17.2 ± 3.9 mmol/L.

And the Insulin (db/db mice; serum, Elisa)?
The Insulin was 8.19 ± 2.10 pg/mL.

And the Blood glucose value (db/db mice; 1 h after last administration)?
The Blood glucose value was 12.2 ± 3.6 mmol/L.

What about the Blood glucose value (STZ mice [2]) of the same molecule?
The Blood glucose value was 17.9 ± 3.6 mmol/L.
